The structures appear in SMILES notation.

Experimental findings from patent US20160046618A1, “Cyclopropyl Fused Thiazin-2-Amine Compounds as Beta-Secretase Inhibitors and Methods of Use” (AMGEN INC., priority 2014, published 2016) are described below.

In one experiment the test system is Aβ 40 in rat brain. As to the kind of experiment: In vivo inhibition of beta-secretase: Aβ40 reduction in rat brain. The following applies: 10 mpk, after 4 h. Put shortly: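 Rats were dosed by oral gavage at up to 100 mg/kg in 2% HPMC, 1% Tween80, pH 2.2, with vehicle-only controls. Supernatant Aβ40 was measured by ECL sandwich ELISA with biotinylated-4G8 capture and C-terminal Fab40 detection.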

For experiment [1], the system named is Aβ40 in conditioned medium of cells stably expressing Amyloid Precursor Protein (APP). The experiment in a line: In vitro BACE-1 cell-based assay (Aβ40 sandwich ELISA). The following applies: read-out: IC50 IP (μM) BACE1 cell. Put shortly:
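APP-expressing cells treated 24 h at 37 °C with compound in 10-point dose response (top 100 μM or 10 μM, 0.1% DMSO final). Secreted Aβ40 in conditioned medium quantified by sandwich ELISA (pAb40 capture, biotinylated 6E10 detection, time-resolved europium fluorescence); IC50 from percent inhibition versus concentration.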
Background: ELISA stands for enzyme-linked immunosorbent assay.

A further experiment deals with Aβ 40 in rat CSF. As to the kind of experiment: In vivo inhibition of beta-secretase: Aβ40 reduction in rat CSF. The following applies: 10 mpk, after 4 h. Put shortly: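 Male Sprague Dawley rats (200 g) dosed orally in 2% HPMC, 1% Tween80, pH 2.2, at 3, 10 or 30 mg/kg; CSF and brain taken 4 h later. Brain homogenate centrifuged at 355,000 g; Aβ40 measured by ECL sandwich ELISA (4G8 capture, Abeta40 C-terminal Fab detection), as % reduction versus vehicle controls.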

In another experiment the target is human recombinant BACE2 (Homo sapiens (Human), UniProt Q9Y5Z0). The experiment in a line: In vitro enzymatic BACE2 FRET assay. The format is biochemical. The following applies: read-out: IC50 IP (μM) BACE2 enzyme. Put shortly: (§1)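 Protease purified by Ni-NTA chromatography; start with FRET substrate (50 nM); incubate 1 h; quench with Tris to neutral pH; read fluorescence ex 488 / em 590 nm.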

Another experiment deals with Recombinant Cat D (Homo sapiens (Human), UniProt P07339). As to the kind of experiment: In vitro enzymatic Cathepsin D (Cat D) FRET assay. The format is biochemical. The following applies: read-out: IC50 IP (μM) CatD. Put shortly:
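Fluorescence at 500 nm excitation and 580 nm emission reports cleavage of a quenched fluorophore–quencher peptide (20 nM) by CHO-expressed Cat D. Reactions ran one hour in 0.05 M citrate pH 3.5, 5 mM CHAPS, 10% DMSO final before a Tris stop raised pH to neutrality.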

The next experiment concerns the target human recombinant BACE1 (Homo sapiens (Human), UniProt P56817). As to the kind of experiment: In vitro enzymatic BACE1 FRET assay. It counts as biochemical. The following applies: read-out: IC50 IP (μM) BACE1 enzyme. Put shortly: as §1

Sequence of Recombinant Cat D (P07339 65-412): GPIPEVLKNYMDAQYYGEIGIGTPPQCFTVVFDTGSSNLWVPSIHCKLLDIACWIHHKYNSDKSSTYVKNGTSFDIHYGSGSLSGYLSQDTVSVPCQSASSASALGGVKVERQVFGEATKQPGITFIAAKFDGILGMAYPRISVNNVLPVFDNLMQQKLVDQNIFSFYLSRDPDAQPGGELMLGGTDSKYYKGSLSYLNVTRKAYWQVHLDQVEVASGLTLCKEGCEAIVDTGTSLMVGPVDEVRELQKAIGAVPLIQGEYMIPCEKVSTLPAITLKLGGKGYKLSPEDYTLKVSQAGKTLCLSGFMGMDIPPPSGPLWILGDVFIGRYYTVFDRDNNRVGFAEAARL
Sequence of human recombinant BACE2 (Q9Y5Z0 63-518): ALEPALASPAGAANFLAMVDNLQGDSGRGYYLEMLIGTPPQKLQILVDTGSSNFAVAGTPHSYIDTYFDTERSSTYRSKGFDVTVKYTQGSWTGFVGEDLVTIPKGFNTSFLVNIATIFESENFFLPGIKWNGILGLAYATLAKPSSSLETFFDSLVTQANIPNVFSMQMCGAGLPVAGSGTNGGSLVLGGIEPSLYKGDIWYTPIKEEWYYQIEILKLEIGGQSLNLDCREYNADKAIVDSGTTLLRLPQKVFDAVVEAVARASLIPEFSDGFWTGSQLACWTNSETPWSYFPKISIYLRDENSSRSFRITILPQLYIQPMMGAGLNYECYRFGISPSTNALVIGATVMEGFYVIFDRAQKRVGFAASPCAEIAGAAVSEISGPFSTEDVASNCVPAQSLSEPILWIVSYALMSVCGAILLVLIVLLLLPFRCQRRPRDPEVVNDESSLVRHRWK
Sequence of human recombinant BACE1 (P56817 46-501): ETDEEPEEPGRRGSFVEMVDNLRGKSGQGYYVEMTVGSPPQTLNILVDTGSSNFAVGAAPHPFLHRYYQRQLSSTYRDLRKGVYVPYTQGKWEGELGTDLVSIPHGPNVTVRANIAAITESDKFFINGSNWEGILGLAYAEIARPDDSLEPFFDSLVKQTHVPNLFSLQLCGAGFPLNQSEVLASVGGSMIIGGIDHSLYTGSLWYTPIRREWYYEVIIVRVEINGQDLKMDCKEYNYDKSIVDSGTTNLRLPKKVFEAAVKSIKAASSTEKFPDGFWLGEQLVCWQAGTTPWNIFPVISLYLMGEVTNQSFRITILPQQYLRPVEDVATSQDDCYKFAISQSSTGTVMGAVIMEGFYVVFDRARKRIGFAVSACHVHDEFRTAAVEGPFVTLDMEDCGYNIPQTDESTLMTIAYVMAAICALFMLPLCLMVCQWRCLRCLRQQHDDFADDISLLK

By IC50 is commonly meant the point on the concentration scale where inhibition reaches its midpoint. For the compound `COC[C@]12C[C@H]1[C@@](C)(c1cc(NC(=O)c3cnc(OCC(F)(F)F)cn3)ccc1F)N=C(N)S2` [Example 831, N-(3-((1S,5S,6S)-3-amino-1-(methoxymethyl)-5-methyl-2-thia-4-azabicyclo[4.1.0]hept-3-en-5-yl)-4-fluorophenyl)-5-(2,2,2-trifluoroethoxy)-2-pyrazinecarboxamide], in the experiment with Aβ 40 in rat brain, the “% Aβ 40 reduction in rat brain at 10 mpk” value is reported as 16%. The IC50 is 0.00359 µM in experiment [1], 0.118 µM at human recombinant BACE2, over 400 µM at Recombinant Cat D and 0.00299 µM at human recombinant BACE1. For the same compound, the “% Aβ 40 reduction in rat CSF at 10 mpk” value with Aβ 40 in rat CSF came out at 49%.

Consider `C#CCOc1cnc(C(=O)Nc2ccc(F)c([C@@]3(C)N=C(N)S[C@@]4(COC)C[C@H]43)c2)cn1` [Example 834, N-(3-((1S,5S,6S)-3-amino-1-(methoxymethyl)-5-methyl-2-thia-4-azabicyclo[4.1.0]hept-3-en-5-yl)-4-fluorophenyl)-5-(2-propyn-1-yloxy)-2-pyrazinecarboxamide], for which the “% Aβ 40 reduction in rat brain at 10 mpk” value in the experiment with Aβ 40 in rat brain is recorded as 83%. Further, the IC50 in experiment [1] amounted to 0.000489 µM; at human recombinant BACE2, 0.0127 µM; on Recombinant Cat D it was 318 µM; on human recombinant BACE1, 0.000404 µM. Besides, the “% Aβ 40 reduction in rat CSF at 10 mpk” value in the experiment with Aβ 40 in rat CSF stood at 83%.

As for `C#CCOc1cnc2c(Nc3cc(F)c(F)c([C@@]4(CF)N=C(N)S[C@H]5C[C@H]54)c3)nccc2n1` [Example 841, N-(3-((1S,5S,6S)-3-amino-5-(fluoromethyl)-2-thia-4-azabicyclo[4.1.0]hept-3-en-5-yl)-4,5-difluorophenyl)-2-(2-propyn-1-yloxy)pyrido[3,4-b]pyrazin-5-amine], in the experiment with Aβ 40 in rat brain, the “% Aβ 40 reduction in rat brain at 10 mpk” value is 44%. The IC50 was found to be 0.0216 µM in experiment [1], 0.0449 µM on human recombinant BACE2, 598 µM at Recombinant Cat D and 0.00114 µM on human recombinant BACE1. Moreover, the “% Aβ 40 reduction in rat CSF at 10 mpk” value with Aβ 40 in rat CSF came to 58%.

Turning to `NC1=N[C@](CF)(c2cc(Nc3nccc4nc(OCc5ncco5)cnc34)cc(F)c2F)[C@@H]2C[C@@H]2S1` [Example 842, N-(3-((1S,5S,6S)-3-amino-5-(fluoromethyl)-2-thia-4-azabicyclo[4.1.0]hept-3-en-5-yl)-4,5-difluorophenyl)-2-(1,3-oxazol-2-ylmethoxy)pyrido[3,4-b]pyrazin-5-amine], the “% Aβ 40 reduction in rat brain at 10 mpk” value with Aβ 40 in rat brain was 25%. In addition, the IC50 was 0.0217 µM in experiment [1], 0.119 µM at human recombinant BACE2, over 400 µM at Recombinant Cat D and 0.00256 µM on human recombinant BACE1. The “% Aβ 40 reduction in rat CSF at 10 mpk” value in the experiment on Aβ 40 in rat CSF came out at 51%.

For `NC1=N[C@](CF)(c2cc(Nc3nccc4nc(OCc5cocn5)cnc34)cc(F)c2F)[C@@H]2C[C@@H]2S1` [Example 843, N-(3-((1S,5S,6S)-3-amino-5-(fluoromethyl)-2-thia-4-azabicyclo[4.1.0]hept-3-en-5-yl)-4,5-difluorophenyl)-2-(1,3-oxazol-4-ylmethoxy)pyrido[3,4-b]pyrazin-5-amine], the “% Aβ 40 reduction in rat brain at 10 mpk” value in the experiment with Aβ 40 in rat brain was 16%. Also, the IC50 in experiment [1] worked out at 0.0493 µM; on human recombinant BACE2, 0.115 µM; at Recombinant Cat D it was 432 µM; on human recombinant BACE1, 0.00378 µM. Further, in the experiment with Aβ 40 in rat CSF, the “% Aβ 40 reduction in rat CSF at 10 mpk” value was 51%.

With `C#CCOc1cnc2c(Nc3cc(F)c(F)c([C@@]4(C)N=C(N)S[C@@]5(C(N)=O)C[C@H]54)c3)nccc2n1` [Example 911, (1S,5S,6S)-3-amino-5-(2,3-difluoro-5-((2-(2-propyn-1-yloxy)pyrido[3,4-b]pyrazin-5-yl)amino)phenyl)-5-methyl-2-thia-4-azabicyclo[4.1.0]hept-3-ene-1-carboxamide], in the experiment with Aβ 40 in rat brain, the “% Aβ 40 reduction in rat brain at 10 mpk” value is 20%. Moreover, the IC50 is 0.0038 µM in experiment [1], 0.00714 µM at human recombinant BACE2, over 400 µM at Recombinant Cat D and 0.000649 µM on human recombinant BACE1. In addition, the “% Aβ 40 reduction in rat CSF at 10 mpk” value in the experiment with Aβ 40 in rat CSF stood at 21%.

Turning to `C#CCOc1cnc2c(Nc3cc(F)c(F)c([C@@]4(C)N=C(N)S[C@@]5(C(=O)NC)C[C@H]54)c3)nccc2n1` [Example 915, (1S,5S,6S)-3-amino-5-(2,3-difluoro-5-((2-(2-propyn-1-yloxy)pyrido[3,4-b]pyrazin-5-yl)amino)phenyl)-N,5-dimethyl-2-thia-4-azabicyclo[4.1.0]hept-3-ene-1-carboxamide], in the experiment on Aβ 40 in rat brain, the “% Aβ 40 reduction in rat brain at 10 mpk” value was 47%. Also, the IC50 was 0.00195 µM in experiment [1], 0.0101 µM at human recombinant BACE2, over 400 µM at Recombinant Cat D and 0.000426 µM at human recombinant BACE1. For the same compound, the “% Aβ 40 reduction in rat CSF at 10 mpk” value with Aβ 40 in rat CSF is listed as 51%.

In the case of `C#CCOc1cnc2c(Nc3cc(F)c(F)c([C@@]4(C)N=C(N)S[C@@]5(C#N)C[C@H]54)c3)ncnc2c1` [Example 921, (1S,5S,6S)-3-amino-5-(2,3-difluoro-5-((7-(2-propyn-1-yloxy)pyrido[3,2-d]pyrimidin-4-yl)amino)phenyl)-5-methyl-2-thia-4-azabicyclo[4.1.0]hept-3-ene-1-carbonitrile], in the experiment with Aβ 40 in rat brain, the “% Aβ 40 reduction in rat brain at 10 mpk” value is recorded as 64%. In addition, the IC50 came out at 0.0206 µM in experiment [1], 0.0627 µM at human recombinant BACE2, 172 µM at Recombinant Cat D and 0.00198 µM at human recombinant BACE1. In the experiment on Aβ 40 in rat CSF, the “% Aβ 40 reduction in rat CSF at 10 mpk” value turned out to be 70%.

With `C#CCOc1cnc(C(=O)Nc2cc(F)c(F)c([C@@]3(C)N=C(N)S[C@@]4(C#N)C[C@H]43)c2)cn1` [Example 924, N-(3-((1S,5S,6S)-3-amino-1-cyano-5-methyl-2-thia-4-azabicyclo[4.1.0]hept-3-en-5-yl)-4,5-difluorophenyl)-5-(2-propyn-1-yloxy)-2-pyrazinecarboxamide], in the experiment on Aβ 40 in rat brain, the “% Aβ 40 reduction in rat brain at 10 mpk” value is 76%. Moreover, the concentration for half-maximal inhibition (IC50) was 0.00138 µM in experiment [1], under 0.00203 µM on human recombinant BACE2, 17.8 µM at Recombinant Cat D and 0.000249 µM on human recombinant BACE1. In the experiment with Aβ 40 in rat CSF, the “% Aβ 40 reduction in rat CSF at 10 mpk” value is 84%.

For the compound `C#C[C@H](C)Oc1cnc2c(Nc3cc(F)c(F)c([C@@]4(C)N=C(N)S[C@@]5(C#N)C[C@H]54)c3)nccc2n1` [Example 931, (1S,5S,6S)-3-amino-5-(2,3-difluoro-5-((2-(((1S)-1-methyl-2-propyn-1-yl)oxy)pyrido[3,4-b]pyrazin-5-yl)amino)phenyl)-5-methyl-2-thia-4-azabicyclo[4.1.0]hept-3-ene-1-carbonitrile], the “% Aβ 40 reduction in rat brain at 10 mpk” value with Aβ 40 in rat brain is 3%. Also, the IC50 in experiment [1] amounted to 0.0386 µM; at human recombinant BACE2, 0.0551 µM; at Recombinant Cat D, 633 µM; on human recombinant BACE1, 0.000902 µM. In addition, the “% Aβ 40 reduction in rat CSF at 10 mpk” value in the experiment on Aβ 40 in rat CSF is given as 8%.

For the compound `C#CCOc1cnc2c(Nc3ccc(F)c([C@@]4(CF)N=C(N)S[C@H]5C[C@H]54)c3)ncnc2c1` [Example 941, N-(3-((1S,5S,6S)-3-amino-5-(fluoromethyl)-2-thia-4-azabicyclo[4.1.0]hept-3-en-5-yl)-4-fluorophenyl)-7 (2-propyn-1-yloxy)pyrido[3,2-d]pyrimidin-4-amine], in the experiment with Aβ 40 in rat brain, the “% Aβ 40 reduction in rat brain at 10 mpk” value is given as 2%. Also, the IC50 in experiment [1] worked out at 0.0129 µM; at human recombinant BACE2 it was 0.2 µM; at Recombinant Cat D it was 780 µM; at human recombinant BACE1, 0.00962 µM. Moreover, in the experiment with Aβ 40 in rat CSF, the “% Aβ 40 reduction in rat CSF at 10 mpk” value was 41%.
